Patent US7094900B2, “N-Aryl-2-oxazolidinones and their derivatives” (Pharmacia & Upjohn Company LLC, priority 2002, dated 2006)

The compounds below were run on Saur 9213 (assay: MIC test, standard agar dilution method). Conditions: Mueller Hinton agar, incubated overnight at 35° C., lowest concentration that inhibits visible growth.
Type: cell-based
Source text: The oxazolidinone antibacterial agents of this invention have useful activity against a variety of organisms. The in vitro activity of compounds of this invention can be assessed by standard testing procedures such as the determination of minimum inhibitory concentration (MIC) by agar dilution as described in “Approved Standard. Methods for Dilution Antimicrobial Susceptibility Tests for Bacteria That Grow Aerobically”, 3rd. ed., published 1993 by the National Committee for Clinical Laboratory Standards, Villanova, Pa., USA. MIC Test Method The in vitro MICs of test compounds were determined by a standard agar dilution method. A stock drug solution of each analog was prepared in the preferred solvent, usually DMSO:H2O (1:3). Serial 2-fold dilutions of each sample are made using 1.0 ml aliquots of sterile distilled water. To each 1.0 ml aliquot of drug was added 9 ml of molten Mueller Hinton gar medium. The drug-supplemented agar was mixed, poured into 15×100 mm petri dishes, and allowed to solidify and dry prior to inoculation. Vial of each of the test organisms are maintained frozen in the vapor phase of a liquid nitrogen freezer. Test cultures are grown overnight at 35° C. on the medium appropriate for the organism. Colonies are harvested with a sterile swab, and cell suspensions are prepared in Trypticase Soy broth (TSB) to equal the turbidity of a 0.5 McFarland standard. A 1:20 dilution of each suspension was made in TSB. The plates containing the drug supplemented agar are inoculated with a 0.001 ml drop of the cell suspension using a Steers replicator, yielding approximately 10^4 to 10^5 cells per spot. The plates are incubated overnight at 35° C. Following incubation the Minimum Inhibitory Concentration (MIC μg/ml), the lowest concentration of the drug that inhibits visible growth of the organism, was read and recorded.

MIC, 1 µg/mL:
O=C1CCC(c2ccc(N3C[C@H](CNC(=S)C(F)F)OC3=O)cc2F)CN1 (stereo partly drawn) [Example 4, 2,2-difluoro-N-({(5S)-3-[3-fluoro-4-(6-oxopiperidin-3-yl)phenyl]-2-oxo-1,3-oxazolidin-5-yl}methyl)ethanethioamide]
O=C1CCC(c2c(F)cc(N3C[C@H](CNC(=S)C(F)F)OC3=O)cc2F)CN1 (stereo partly drawn) [Example 8, N-({(5S)-3-[3,5-difluoro-4-(6-oxopiperidin-3-yl)phenyl]-2-oxo-1,3-oxazolidin-5-yl}methyl)-2,2-difluoroethanethioamide]
O=C1CC(c2ccc(N3C[C@H](CNC(=S)C(F)F)OC3=O)cc2F)CCN1 (stereo partly drawn) [Example 18, 2,2-difluoro-N-({(5S)-3-[3-fluoro-4-(2-oxopiperidin-4-yl)phenyl]-2-oxo-1,3-oxazolidin-5-yl}methyl)ethanethioamide]
O=C1CC(c2ccc(N3C[C@H](CNC(=S)C(F)F)OC3=O)cc2)CCN1 (stereo partly drawn) [Example 23, 2,2-difluoro-N-({(5S)-2-oxo-3-[4-(2-oxopiperidin-4-yl)phenyl]-1,3-oxazolidin-5-yl}methyl)ethanethioamide]

MIC, 8 µg/mL:
CC(=O)NC[C@H]1CN(c2ccc(C3CCC(=O)NC3)cc2)C(=O)O1 (stereo partly drawn) [Example 10, N-({(5S)-2-oxo-3-[4-(6-oxopiperidin-3-yl)phenyl]-1,3-oxazolidin-5-yl}methyl)acetamide]
CCC(=O)NC[C@H]1CN(c2ccc(C3CCC(=O)NC3)cc2)C(=O)O1 (stereo partly drawn) [Example 11, N-({(5S)-2-oxo-3-[4-(6-oxopiperidin-3-yl)phenyl]-1,3-oxazolidin-5-yl}methyl)propanamide]
CC(=O)NC[C@H]1CN(c2ccc(C3CCC(=O)N(C)C3)cc2)C(=O)O1 (stereo partly drawn) [Example 15, ({(5S)-3-[4-(1-methyl-6-oxopiperidin-3-yl)phenyl]-2-oxo-1,3-oxazolidin-5-yl}methyl)acetamide]
CCC(=O)NC[C@H]1CN(c2cc(F)c(C3CCNC(=O)C3)c(F)c2)C(=O)O1 (stereo partly drawn) [Example 20, N-({(5S)-3-[3,5-difluoro-4-(2-oxopiperidin-4-yl)phenyl]-2-oxo-1,3-oxazolidin-5-yl}methyl)propanamide]
CCC(=O)NC[C@H]1CN(c2ccc(C3CCNC(=O)C3)cc2)C(=O)O1 (stereo partly drawn) [Example 24, N-({(5S)-2-oxo-3-[4-(2-oxopiperidin-4-yl)phenyl]-1,3-oxazolidin-5-yl}methyl)propanamide]

MIC, 2 µg/mL:
O=C1CCC(c2c(F)cc(N3C[C@H](CNC(=O)C(Cl)Cl)OC3=O)cc2F)CN1 (stereo partly drawn) [Example 7, 2,2-dichloro-N-({(5S)-3-[3,5-difluoro-4-(6-oxopiperidin-3-yl)phenyl]-2-oxo-1,3-oxazolidin-5-yl}methyl)acetamide]
O=C1CCC(c2ccc(N3C[C@H](CNC(=S)C(F)F)OC3=O)cc2)CN1 (stereo partly drawn) [Example 13, 2,2-difluoro-N-({(5S)-2-oxo-3-[4-(6-oxopiperidin-3-yl)phenyl]-1,3-oxazolidin-5-yl}methyl)ethanethioamide]
CC(=O)NC[C@H]1CN(c2ccc(C3CCNC(=O)C3)c(F)c2)C(=O)O1 (stereo partly drawn) [Example 16, N-({(5S)-3-[3-fluoro-4-(2-oxopiperidin-4-yl)phenyl]-2-oxo-1,3-oxazolidin-5-yl}methyl)acetamide]
O=C1CC(c2c(F)cc(N3C[C@H](CNC(=S)C(F)F)OC3=O)cc2F)CCN1 (stereo partly drawn) [Example 21, N-({(5S)-3-[3,5-difluoro-4-(2-oxopiperidin-4-yl)phenyl]-2-oxo-1,3-oxazolidin-5-yl}methyl)-2,2-difluoroethanethioamide]
O=C1CCC(c2c(F)cc(N3C[C@H](Cn4ccnn4)OC3=O)cc2F)CN1 (stereo partly drawn) [Example 26, 5-{2,6-difluoro-4-[(5R)-2-oxo-5-(1H-1,2,3-triazol-1-ylmethyl)-1,3-oxazolidin-3-yl]phenyl}piperidin-2-one]

MIC, 4 µg/mL:
CC(=O)NC[C@H]1CN(c2ccc(C3CCC(=O)NC3)c(F)c2)C(=O)O1 (stereo partly drawn) [Example 1, N-({(5S)-3-[3-fluoro-4-(6-oxopiperidin-3-yl)phenyl]-2-oxo-1,3-oxazolidin-5-yl}methyl)acetamide]
CCC(=O)NC[C@H]1CN(c2ccc(C3CCC(=O)NC3)c(F)c2)C(=O)O1 (stereo partly drawn) [Example 2, N-({(5S)-3-[3-fluoro-4-(6-oxopiperidin-3-yl)phenyl]-2-oxo-1,3-oxazolidin-5-yl}methyl)propanamide]
O=C1CCC(c2ccc(N3C[C@H](CNC(=O)C(Cl)Cl)OC3=O)cc2F)CN1 (stereo partly drawn) [Example 3, 2,2-dichloro-N-({(5S)-3-[3-fluoro-4-(6-oxopiperidin-3-yl)phenyl]-2-oxo-1,3-oxazolidin-5-yl}methyl)acetamide]
O=C1CCC(c2ccc(N3C[C@H](CNC(=O)C(F)F)OC3=O)cc2F)CN1 (stereo partly drawn) [Example 5, 2,2-difluoro-N-({(5S)-3-[3-fluoro-4-(6-oxopiperidin-3-yl)phenyl]-2-oxo-1,3-oxazolidin-5-yl}methyl)acetamide]
CC(=O)NC[C@H]1CN(c2cc(F)c(C3CCC(=O)NC3)c(F)c2)C(=O)O1 (stereo partly drawn) [Example 6, N-({(5S)-3-[3,5-difluoro-4-(6-oxopiperidin-3-yl)phenyl]-2-oxo-1,3-oxazolidin-5-yl}methyl)acetamide]
O=C1CCC(c2c(F)cc(N3C[C@H](CNC(=O)C(F)F)OC3=O)cc2F)CN1 (stereo partly drawn) [Example 9, N-({(5S)-3-[3,5-difluoro-4-(6-oxopiperidin-3-yl)phenyl]-2-oxo-1,3-oxazolidin-5-yl}methyl)-2,2-difluoroacetamide]
O=C1CCC(c2ccc(N3C[C@H](CNC(=O)C(Cl)Cl)OC3=O)cc2)CN1 (stereo partly drawn) [Example 12, 2,2-dichloro-N-({(5S)-2-oxo-3-[4-(6-oxopiperidin-3-yl)phenyl]-1,3-oxazolidin-5-yl}methyl)acetamide]
CCC(=O)NC[C@H]1CN(c2ccc(C3CCNC(=O)C3)c(F)c2)C(=O)O1 (stereo partly drawn) [Example 17, N-({(5S)-3-[3-fluoro-4-(2-oxopiperidin-4-yl)phenyl]-2-oxo-1,3-oxazolidin-5-yl}methyl)propanamide]
CC(=O)NC[C@H]1CN(c2cc(F)c(C3CCNC(=O)C3)c(F)c2)C(=O)O1 (stereo partly drawn) [Example 19, N-({(5S)-3-[3,5-difluoro-4-(2-oxopiperidin-4-yl)phenyl]-2-oxo-1,3-oxazolidin-5-yl}methyl)acetamide]
CC(=O)NC[C@H]1CN(c2ccc(C3CCNC(=O)C3)cc2)C(=O)O1 (stereo partly drawn) [Example 22, N-({(5S)-2-oxo-3-[4-(2-oxopiperidin-4-yl)phenyl]-1,3-oxazolidin-5-yl}methyl)acetamide]
CC(=O)NC[C@H]1CN(c2ccc(C3CCN(C)C(=O)C3)cc2)C(=O)O1 (stereo partly drawn) [Example 25, N-({(5S)-3-[4-(1-methyl-2-oxopiperidin-4-yl)phenyl]-2-oxo-1,3-oxazolidin-5-yl}methyl)acetamide]
